Assay [1] addresses T1, BRD9 (Homo sapiens, UniProt Q9H8M2).
T1 sequence (Q9H8M2 1-597): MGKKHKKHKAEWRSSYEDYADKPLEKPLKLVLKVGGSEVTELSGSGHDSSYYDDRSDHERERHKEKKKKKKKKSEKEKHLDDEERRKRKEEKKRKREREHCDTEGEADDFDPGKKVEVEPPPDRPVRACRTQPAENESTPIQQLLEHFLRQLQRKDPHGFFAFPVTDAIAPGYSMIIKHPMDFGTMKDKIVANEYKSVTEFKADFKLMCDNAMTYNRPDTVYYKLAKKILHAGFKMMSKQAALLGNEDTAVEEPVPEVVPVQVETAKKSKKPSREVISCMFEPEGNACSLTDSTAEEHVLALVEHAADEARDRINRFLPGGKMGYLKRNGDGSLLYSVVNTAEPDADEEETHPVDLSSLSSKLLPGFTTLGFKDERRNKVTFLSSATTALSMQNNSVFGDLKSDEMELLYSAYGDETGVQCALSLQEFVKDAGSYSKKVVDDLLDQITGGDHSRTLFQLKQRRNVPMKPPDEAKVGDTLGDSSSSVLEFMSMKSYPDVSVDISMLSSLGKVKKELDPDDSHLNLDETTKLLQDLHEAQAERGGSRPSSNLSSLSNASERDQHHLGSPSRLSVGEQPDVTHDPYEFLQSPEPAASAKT
As to the kind of experiment: BRD9 degradation, HiBiT-BRD9 KI HEK293 (LgBiT) cells, NanoGlo Lytic Endpoint assay (Assay Protocol 1). The following applies: BRD9 degradation. The class given is cell-based. The gist of the method:
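HiBiT-tagged BRD9 knock-in HEK293 (LgBiT) cells exposed to compounds for 6 h at 37 °C, 5% CO2. Residual BRD9 measured by HiBiT lytic luminescence. % BRD9 remaining normalised to DMSO-treated cells (high) and no-cell wells (low).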
Background: HiBiT is a short tag that completes a luciferase, so light tracks the accessible tagged protein.

The target in assay [2] is T1, BRD9. The assay is described as follows: Degradation of BRD9 (IF), immunofluorescence in MV4-11 cells, 24 hours (Assay Protocol 2). The format is cell-based. Details: A suspension of MV4-11 cells (ATCC CRL-9591) was prepared; host or cells: MV4-11. The gist of the method:
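% BRD9 remaining, scaled between DMSO (high) and 100 nM CFT-8634 (low) control wells, derives from mean Alexa 647 contrast in central nuclei by high-content imaging. MV4-11 cells had 24 h compound exposure at 37° C. before PFA fixation, Triton permeabilisation and anti-BRD9 E4Q3F immunostaining.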

The mark [3] stands for this setting: Assay protocol 1, read-out: DC50.
Where [4] appears, read: HEK293, Assay protocol 1, read-out: Dmax.
[5] abbreviates: Assay protocol 2, BRD9 degradation, read-out: DC50.
Setting [6] is: MV4-11, Assay protocol 2, BRD9 degradation, read-out: Dmax.
The mark [7] stands for this setting: HEK293, Table 4, determined according to Assay Protocol 1, read-out: Dmax^1.
[8] abbreviates: Table 4, BRD9 degradation, determined according to Assay Protocol 2, read-out: DC50^2.

As a reminder, the DC50 is the midpoint of the concentration-degradation curve. For `COc1cc(-c2cn(C)c(=O)c(C)c2C)cc(OC)c1CN1CCN(Cc2cccc3c2CCN(C(=O)/C(C#N)=C/C(C)(C)C)C3C)C2(CC2)C1` (mixture of isomers) [Compound B47, (E/Z)-2-(5-((7-(2,6-dimethoxy-4-(1,4,5-trimethyl-6-oxo-1,6-dihydropyridin-3-yl)benzyl)-4,7-diazaspiro[2.5]octan-4-yl)methyl)-1-methyl-1,2,3,4-tetrahydroisoquinoline-2-carbonyl)-4,4-dimethylpent-2-enenitrile], the DC50 at BRD9 [1] (setting [3]) and on BRD9 [2] (setting [5]) was less than 1.25 nM throughout. Besides, the Dmax on BRD9 [1] (setting [4]) and at BRD9 [2] (setting [6]) was greater than 75% in each case.

On to `COc1cc(-c2cn(C)c(=O)c(C)c2C)cc(OC)c1CN1CCCN(Cc2cccc3c2CCN(C(=O)/C(C#N)=C/C2(F)CC2)C3C)CC1` (single isomer, unassigned) [Compound A69, (E/Z)-2-(5-((4-(2,6-dimethoxy-4-(1,4,5-trimethyl-6-oxo-1,6-dihydropyridin-3-yl)benzyl)-1,4-diazepan-1-yl)methyl)-1-methyl-1,2,3,4-tetrahydroisoquinoline-2-carbonyl)-3-(1-fluorocyclopropyl)acrylonitrile], for which the Dmax at 1 µM at BRD9 [1] (HEK293, Table 2, Assay Protocol 1, 1 μM compound at 6 h of treatment, read-out: Assay 1 Dmax) was greater than 75%. For the same compound, the DC50 lay in the range of 1.25 to 10 nM at BRD9 [1] (Table 2, Assay Protocol 1, 6 h of treatment, read-out: Assay 1 DC50) and 25 to 300 nM at BRD9 [2] (Table 2, BRD9 degradation (IF), Assay Protocol 2, MV4-11 cells, read-out: Assay 2 DC50). The Dmax at BRD9 [2] (MV4-11, 24 h, Table 2, BRD9 degradation (IF), Assay Protocol 2, MV4-11 cells, read-out: Assay 2 DCmax) was in the range of 40 to 70%.

On to `COc1cc(-c2cn(C)c(=O)c(C)c2C)cc(OC)c1CN1CCN(Cc2cccc3c2CCN(C(=O)/C(C#N)=C/C2CCOC2)C3C)CC1` (mixture of isomers) [Compound B94, (E/Z)-2-(5-((4-(2,6-dimethoxy-4-(1,4,5-trimethyl-6-oxo-1,6-dihydropyridin-3-yl)benzyl)piperazin-1-yl)methyl)-1-methyl-1,2,3,4-tetrahydroisoquinoline-2-carbonyl)-3-(tetrahydrofuran-3-yl)acrylonitrile], for which the DC50 at BRD9 [1] (setting [3]) and at BRD9 [2] (setting [5]) was 1.25 to 10 nM throughout. Besides, the Dmax was greater than 75% on BRD9 [1] (setting [4]) and 40 to 70% on BRD9 [2] (setting [6]).

Regarding `COc1cc(-c2cn(C)c(=O)c(C)c2C)cc(OC)c1CN(C)C(=O)c1cccc2c1CCN(C(=O)/C(C#N)=C/c1cccc(Br)n1)C2C` (mixture of isomers) [Compound B16, (E/Z)-2-(3-(6-bromopyridin-2-yl)-2-cyanoacryloyl)-N-(2,6-dimethoxy-4-(1,4,5-trimethyl-6-oxo-1,6-dihydropyridin-3-yl)benzyl)-N,1-dimethyl-1,2,3,4-tetrahydroisoquinoline-5-carboxamide], the results for the DC50 at BRD9 [1] (setting [3]) and at BRD9 [2] (setting [5]) were less than 1.25 nM and 1.25 to 10 nM, respectively. Also, the Dmax at BRD9 [1] (setting [4]) and at BRD9 [2] (setting [6]) was greater than 75% each time.

Consider `COc1cc(-c2cn(C)c(=O)c(C)c2C)cc(OC)c1CN1CCN(C(=O)[C@@H]2CN(C(=O)/C(C#N)=C/c3nccs3)C[C@H]2C2CCCCC2)CC1` [Compound B209], for which the Dmax was 30 to 50% on BRD9 [1] (setting [7]) and greater than 70% at BRD9 [2] (MV4-11, Table 4, BRD9 degradation, determined according to Assay Protocol 2, read-out: Dmax^2). Also, the DC50 was greater than 200 nM at BRD9 [1] (Table 4, determined according to Assay Protocol 1, read-out: DC50^1) and 25 to 200 nM at BRD9 [2] (setting [8]).

With `COc1cc(-c2cn(C)c(=O)c(C)c2C)cc(OC)c1CN1CCN(Cc2cccc3c2CCN(C(=O)/C(C#N)=C/c2nc(C(F)(F)F)cs2)C3C)CC1` (mixture of isomers) [Compound B11, (E/Z)-2-(5-((4-(2,6-dimethoxy-4-(1,4,5-trimethyl-6-oxo-1,6-dihydropyridin-3-yl)benzyl)piperazin-1-yl)methyl)-1-methyl-1,2,3,4-tetrahydroisoquinoline-2-carbonyl)-3-(4-(trifluoromethyl)thiazol-2-yl)acrylonitrile], the DC50 at BRD9 [1] (setting [3]) and on BRD9 [2] (setting [5]) was less than 1.25 nM each time. The Dmax on BRD9 [1] (setting [4]) and at BRD9 [2] (setting [6]) was greater than 75% each time.

As to `COc1cc(-c2cn(C)c(=O)c(C)c2C)cc(OC)c1CN1CC2CCC(C1)N2C(=O)/C(C#N)=C/c1nccs1` (mixture of isomers) [BRD9q, (E/Z)-2-(3-(2,6-dimethoxy-4-(1,4,5-trimethyl-6-oxo-1,6-dihydropyridin-3-yl)benzyl)-3,8-diazabicyclo[3.2.1]octane-8-carbonyl)-3-(thiazol-2-yl)acrylonitrile], the Dmax at BRD9 [1] (setting [7]) lay in the range of 50 to 70%. The DC50 on BRD9 [2] (setting [8]) was less than 25 nM.

In the case of `COc1cc(-c2cn(C)c(=O)c(C)c2C)cc(OC)c1CN1CCC2(CC1)CCN(c1cccc3c1CCN(C(=O)/C(C#N)=C/C(C)(C)C)C3C)CC2` (mixture of isomers) [Compound B39, (E/Z)-2-(5-(9-(2,6-dimethoxy-4-(1,4,5-trimethyl-6-oxo-1,6-dihydropyridin-3-yl)benzyl)-3,9-diazaspiro[5.5]undecan-3-yl)-1-methyl-1,2,3,4-tetrahydroisoquinoline-2-carbonyl)-4,4-dimethylpent-2-enenitrile], the 50% degradation concentration (DC50) at BRD9 [1] (setting [3]) was in the range of 25 to 1000 nM; at BRD9 [2] (setting [5]), 10 to 25 nM. The figures for the Dmax on BRD9 [1] (setting [4]) and at BRD9 [2] (setting [6]) were greater than 75% and 40 to 70%, respectively.

For `COc1cc(-c2cn(C)c(=O)c(C)c2C)cc(OC)c1CN1CCN(Cc2cccc3c2CCN(C(=O)/C(C#N)=C/c2ncc(C(F)(F)F)s2)C3C)CC1` (mixture of isomers) [Compound B10, (E/Z)-2-(5-((4-(2,6-dimethoxy-4-(1,4,5-trimethyl-6-oxo-1,6-dihydropyridin-3-yl)benzyl)piperazin-1-yl)methyl)-1-methyl-1,2,3,4-tetrahydroisoquinoline-2-carbonyl)-3-(5-(trifluoromethyl)thiazol-2-yl)acrylonitrile], the DC50 on BRD9 [1] (setting [3]) was 1.25 to 10 nM. Further, the Dmax at BRD9 [1] (setting [4]) was in the range of 70 to 75%; on BRD9 [2] (setting [6]) it was 40 to 70%.

For the compound `CCCC(c1ccccc1CCC(=O)N1CCN(Cc2c(OC)cc(-c3cn(C)c(=O)c(C)c3C)cc2OC)CC1)N(C)C(=O)/C(C#N)=C/c1nccs1` (mixture of isomers) [Compound B186, (E/Z)-2-cyano-N-(1-(2-(3-(4-(2,6-dimethoxy-4-(1,4,5-trimethyl-6-oxo-1,6-dihydropyridin-3-yl)benzyl)piperazin-1-yl)-3-oxopropyl)phenyl)butyl)-N-methyl-3-(thiazol-2-yl)acrylamide], the DC50 on BRD9 [1] (setting [3]) was 1.25 to 10 nM; at BRD9 [2] (setting [5]), less than 1.25 nM. For the same compound, the Dmax on BRD9 [1] (setting [4]) and on BRD9 [2] (setting [6]) was greater than 75% in each case.

Turning to `COc1cc(-c2cn(C)c(=O)c(C)c2C)cc(OC)c1CN1CCN(Cc2cccc3c2CCN(C(=O)/C(C#N)=C/c2cc(C(F)(F)F)ccn2)C3C)CC1` (mixture of isomers) [Compound B50, (E/Z)-2-(5-((4-(2,6-dimethoxy-4-(1,4,5-trimethyl-6-oxo-1,6-dihydropyridin-3-yl)benzyl)piperazin-1-yl)methyl)-1-methyl-1,2,3,4-tetrahydroisoquinoline-2-carbonyl)-3-(4-(trifluoromethyl)pyridin-2-yl)acrylonitrile], the results for the DC50 on BRD9 [1] (setting [3]) and at BRD9 [2] (setting [5]) were less than 1.25 nM and 10 to 25 nM, respectively. The values for the Dmax on BRD9 [1] (setting [4]) and on BRD9 [2] (setting [6]) were 70 to 75% and greater than 75%, respectively.

`COc1cc(-c2cn(C)c(=O)c(C)c2C)cc(OC)c1CN1CC2CC(C1)N2Cc1cccc2c1CCN(C(=O)/C(C#N)=C/c1ccnc(C)n1)C2C` (mixture of isomers) [Compound B25, (E/Z)-2-(5-((3-(2,6-dimethoxy-4-(1,4,5-trimethyl-6-oxo-1,6-dihydropyridin-3-yl)benzyl)-3,6-diazabicyclo[3.1.1]heptan-6-yl)methyl)-1-methyl-1,2,3,4-tetrahydroisoquinoline-2-carbonyl)-3-(2-methylpyrimidin-4-yl)acrylonitrile]: the 50% degradation concentration (DC50) on BRD9 [1] (setting [3]) and on BRD9 [2] (setting [5]) was 1.25 to 10 nM each time. Further, the Dmax on BRD9 [1] (setting [4]) and at BRD9 [2] (setting [6]) was greater than 75% each time.

`COc1cc(-c2cn(C)c(=O)c(C)c2C)cc(OC)c1CN1CCN(Cc2cccc3c2CCN(C(=O)/C(C#N)=C/C24CC(C2)C4)C3C)CC1` (mixture of isomers) [Compound B45, (E/Z)-3-(bicyclo[1.1.1]pentan-1-yl)-2-(5-((4-(2,6-dimethoxy-4-(1,4,5-trimethyl-6-oxo-1,6-dihydropyridin-3-yl)benzyl)piperazin-1-yl)methyl)-1-methyl-1,2,3,4-tetrahydroisoquinoline-2-carbonyl)acrylonitrile]: the 50% degradation concentration (DC50) at BRD9 [1] (setting [3]) and at BRD9 [2] (setting [5]) was less than 1.25 nM in each case. Further, the Dmax at BRD9 [1] (setting [4]) and on BRD9 [2] (setting [6]) was greater than 75% throughout.

Source of the values: patent US20260092061A1, “COMPOUNDS FOR TARGETED PROTEIN DEGRADATION” (Amphista Therapeutics Limited, priority 2022, published 2026).
